Data on two molecules can be found in patent US6602512B1, “Composition for the prevention of muscle fatique and skeletal muscle adaptation of strenuous exercise” (Sigma-Tau HealthScience S.p.A., priority 1999, dated 2003).

SMILES strings stand for the structures.

The subject of one assay is mice. The assay is described as follows: Muscle fatigue test (swimming endurance). As to conditions: for swimming endurance time (in words): daily oral 200 mg/kg over 6 days, versus controls; for Swimming time: daily oral doses of 200 mg/kg of each compound over 6 days preceding the test. It is filed as in vivo. As for the experimental part:
The method described by Zheng (Zheng R. L., Acta Pharmacol. Sinica, 14, 47, 1993) was used for this test in order to observe whether the administration of L-carnitine or creatinol-phosphate or of the two products in combination might increase […] in treated animals as compared to controls.
In this test, different groups of mice received daily oral doses of 200 mg/kg of L-carnitine or 200 mg/kg of creatinol-phosphate or of the two compounds in combination over the 6-day period preceding the test. The animals were immersed in a tank full of water and swimming endurance time was measured.

Another assay has as its system gastrocnemius muscle. The assay is described as follows: Forced muscular exercise test (treadmill), MDA content in gastrocnemius muscle. The assay is classed as in vivo. The note with it: rats, daily oral 200 mg/kg of each compound for 6 days; for MDA content in muscle, After 5 min: gastrocnemius muscle 5 min after end of treadmill test; for MDA content in muscle, After 30 min: gastrocnemius muscle 30 min after end of treadmill test. An excerpt:
As is known, forced muscular exercise can produce structural and inflammatory-type lesions at muscle fibre level, due to the increased oxygen consumption and to production of reactive oxygen species (ROS). A marker of the level of ROS-induced lipid peroxidation of the muscle may be obtained from its malondialdehyde (MDA) concentration. For this test, the method described by Husain was used (Husain K., Pathophysiology, 4, 69, 1997) as modified by Li (Li J.X., Acta Pharmacologica Sinica, 20, 126, 1999) which consists essentially in examining rats on a treadmill at controlled belt speed and preset inclination. In this way the rats were made to run at a belt speed of 28 m/min and an inclination of approximately 5°. Exhaustion of the control animals subjected to the exercise occurred after approximately 90 minutes.
The test was performed on rats receiving daily oral treament over the 6-day period preceding the test with 200 mg/kg of L-carnitine or with 200 mg/kg of creatinol-phosphate or with the two compounds in combination.
Five minutes and 30 minutes, respectively, after the end of the test, the animals were sacrificed and samples of gastrocnemius muscle were taken for measurement of the malondialdehyde (MDA) content using the reaction with thiobarbituric acid according to the method described by Ohkawa (Ohkawa H. Angl. Biochem 95, 351, 1979).

For `CN(CCOP(=O)(O)O)C(=N)N` [Creatinol-phosphate, 1-(2-hydroxyethyl)-1-methylguanidine-O-phosphate], in the assay with mice, the “swimming endurance time (in words)” value is given as “increased swimming endurance time” and the Swimming time was found to be 124 ± 11 min. Also, in the assay with gastrocnemius muscle, the “MDA content in muscle, After 5 min” value came out at 206 ± 16 nmol/g and the “MDA content in muscle, After 30 min” value amounted to 209 ± 12 nmol/g.
For `C[N+](C)(C)C[C@H](O)CC(=O)[O-]` [L-carnitine], in the assay with mice, the “swimming endurance time (in words)” value is reported as “increased swimming endurance time” and the Swimming time was found to be 118 ± 14 min. For the same molecule, in the assay on gastrocnemius muscle, the “MDA content in muscle, After 5 min” value is 218 ± 11 nmol/g and the “MDA content in muscle, After 30 min” value was 216 ± 14 nmol/g.
